Values joined by “and” are separate entries in the source; they are usually repeats but may differ in a detail not shown here. Equal entries are not always repeated.
What was measured:
Assay type in all cases: in vivo
Ambrosia elatior [1] = experiment: greenhouse post-emergence treatment, AMBEL
Method in brief: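 Test plants reached 3 to 15 cm before being sprayed with components A, B and, where applicable, C as emulsion concentrates in water. After 2 to 4 weeks at species-dependent temperatures, injury was rated 0–100.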

Papaver rhoeas = experiment: greenhouse post-emergence treatment, PAPRH
Method in brief: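 Scale 0–100 damage rating (100 = complete destruction of above-ground parts, 0 = normal growth), read 2 to 4 weeks after post-emergence application of aqueous spray liquor to plants 3–15 cm tall.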

Ambrosia elatior [2] = experiment: greenhouse pre-emergence treatment, AMBEL
Method in brief: (§1)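 Damage rated on 0 to 100 scale (0 = normal growth, 100 = no emergence or total above-ground kill) after 2-4 weeks at species-dependent 10-25° C or 20-35° C. Seeds sown per species in loamy sand, ~3.0% humus, treated right after sowing with aqueous spray of single actives or 10% emulsion-concentrate mixtures, then hooded; additive expectation by Colby.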

Avena fatua [3] = experiment: greenhouse pre-emergence treatment, AVEFA
Method in brief: as §1

Avena fatua [4] = experiment: greenhouse post-emergence treatment, AVEFA
Method in brief: (§2)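 Greenhouse test in humus-containing (~3.0%) loamy sand at species-dependent temperatures of 10-25° C. or 20-35° C.; treatments applied in water. Damage rated visually after 2–4 weeks (0 = none, 100 = complete destruction or no emergence).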

Setaria viridis = experiment: greenhouse post-emergence treatment, SETVI
Method in brief: as §2

[5] = 20 DAT, AMBEL, Ex. 26 solo 62.5 gai/ha
[6] = 20 DAT, AMBEL, Ex. 26 solo 125 gai/ha
[7] = 20 DAT, AMBEL, Ex. 26 solo 250 gai/ha
[8] = 20 DAT, Ex. 26 solo 62.5 gai/ha
[9] = AMBEL, Ex. 26 solo 62.5 gai/ha, 20 DAT
[10] = AMBEL, Ex. 26 solo 125 gai/ha, 20 DAT
[11] = Ex. 26 solo 250 gai/ha, 21 DAT, AMBEL
[12] = 20 DAT, AVEFA, Ex. 26 solo 125 gai/ha
[13] = AVEFA, Ex. 26 solo 125 gai/ha, 20 DAT
[14] = AVEFA, Ex. 26 solo 250 gai/ha, 20 DAT

Measured: % activity

COC(=O)c1nc(C2CC2)ncc1-c1ccc(F)cc1Cl [Ex. 26]
45%: Papaver rhoeas; Ex. 26 solo 250 gai/ha, 20 DAT, PAPRH (pyridate table) | Avena fatua [3]; AVEFA, 20 DAT, solo Ex. 26 62.5 gai/ha (Table X68)
35%: Avena fatua [4]; [8]
10%: Setaria viridis; Ex. 26 solo 250 gai/ha, 20 DAT, SETVI (pyroxsulam table) | Setaria viridis; Ex. 26 solo, 125 gai/ha, 21 DAT, SETVI
40%: Ambrosia elatior [1]; [7] | Avena fatua [3]; AVEFA, Ex. 26 solo 62.5 gai/ha, 20 DAT
25% and 20%: Avena fatua [3]; Ex. 26 solo, 31.25 gai/ha, 20 DAT, AVEFA
50%: Avena fatua [4]; Ex. 26 solo 62.5 gai/ha, 21 DAT, AVEFA
60%: Ambrosia elatior [1]; AMBEL, Ex. 26 solo 250 gai/ha, 20 DAT
25%: Setaria viridis; Ex. 26 solo 250 gai/ha, 20 DAT, SETVI (pyridate table)
75%: Avena fatua [3]; AVEFA, 20 DAT, solo Ex. 26 125 gai/ha | Avena fatua [3]; [14] | Avena fatua [4]; [12] | Avena fatua [4]; 20 DAT, AVEFA, Ex. 26 solo 250 gai/ha | Avena fatua [4]; [14] | Avena fatua [4]; Ex. 26 solo 250 gai/ha, 20 DAT, AVEFA
0%: Ambrosia elatior [1]; [5] | Ambrosia elatior [1]; [6] | Ambrosia elatior [1]; [8] | Ambrosia elatior [1]; 20 DAT, Ex. 26 solo 125 gai/ha | Ambrosia elatior [1]; 20 DAT, Ex. 26 solo 250 gai/ha | Ambrosia elatior [1]; 21 DAT, Ex. 26 solo 250 gai/ha | Ambrosia elatior [1]; [9] | Ambrosia elatior [1]; [10] | Ambrosia elatior [1]; Ex. 26 solo 62.5 gai/ha, 20 DAT, AMBEL (pyridate table) | Ambrosia elatior [1]; Ex. 26 solo 62.5 gai/ha, 20 DAT, AMBEL (pyroxsulam table) | Ambrosia elatior [1]; Ex. 26 solo 125 gai/ha, 20 DAT, AMBEL (pyridate table) | Ambrosia elatior [1]; Ex. 26 solo 125 gai/ha, 20 DAT, AMBEL (pyroxsulam table) | Ambrosia elatior [1]; [11] | Ambrosia elatior [1]; Ex. 26 solo, 125 gai/ha, 21 DAT, AMBEL | Papaver rhoeas; [8] | Papaver rhoeas; 20 DAT, Ex. 26 solo 125 gai/ha | Papaver rhoeas; 20 DAT, Ex. 26 solo 250 gai/ha | Papaver rhoeas; 20 DAT, PAPRH, Ex. 26 solo 125 gai/ha | Papaver rhoeas; 21 DAT, Ex. 26 solo 125 gai/ha | Papaver rhoeas; 21 DAT, Ex. 26 solo 250 gai/ha | Papaver rhoeas; Ex. 26 solo 62.5 gai/ha, 20 DAT, PAPRH (pyridate table) | Papaver rhoeas; Ex. 26 solo 62.5 gai/ha, 20 DAT, PAPRH (pyroxsulam table) | Papaver rhoeas; Ex. 26 solo 62.5 gai/ha, 21 DAT, PAPRH | Papaver rhoeas; Ex. 26 solo 125 gai/ha, 20 DAT, PAPRH (pyridate table) | Papaver rhoeas; Ex. 26 solo 125 gai/ha, 20 DAT, PAPRH (pyroxsulam table) | Papaver rhoeas; Ex. 26 solo 250 gai/ha, 20 DAT, PAPRH (pyroxsulam table) | Papaver rhoeas; Ex. 26 solo 250 gai/ha, 21 DAT, PAPRH | Papaver rhoeas; Ex. 26 solo, 125 gai/ha, 21 DAT, PAPRH | Papaver rhoeas; PAPRH, Ex. 26 solo 62.5 gai/ha, 20 DAT | Papaver rhoeas; PAPRH, Ex. 26 solo 125 gai/ha, 20 DAT | Ambrosia elatior [2]; 20 DAT, AMBEL, Ex. 26 solo 31.25 gai/ha | Ambrosia elatior [2]; [5] | Ambrosia elatior [2]; [6] | Ambrosia elatior [2]; [7] | Ambrosia elatior [2]; 20 DAT, Ex. 26 solo 31.25 gai/ha | Ambrosia elatior [2]; [8] | Ambrosia elatior [2]; 20 DAT, Ex. 26 solo 125 gai/ha | Ambrosia elatior [2]; 21 DAT, AMBEL, Ex. 26 solo 250 gai/ha | Ambrosia elatior [2]; AMBEL, 20 DAT, solo Ex. 26 62.5 gai/ha | Ambrosia elatior [2]; AMBEL, 20 DAT, solo Ex. 26 125 gai/ha | Ambrosia elatior [2]; AMBEL, Ex. 26 solo 31.25 gai/ha, 20 DAT | Ambrosia elatior [2]; [9] | Ambrosia elatior [2]; [10] | Ambrosia elatior [2]; [11] | Ambrosia elatior [2]; Ex. 26 solo, 31.25 gai/ha, 20 DAT, AMBEL | Ambrosia elatior [2]; Ex. 26 solo, 62.5 gai/ha, 20 DAT, AMBEL | Ambrosia elatior [2]; Ex. 26 solo, 125 gai/ha, 20 DAT, AMBEL | Setaria viridis; [8] | Setaria viridis; 21 DAT, Ex. 26 solo 125 gai/ha | Setaria viridis; 21 DAT, Ex. 26 solo 250 gai/ha | Setaria viridis; Ex. 26 solo 62.5 gai/ha, 20 DAT, SETVI (pyridate table) | Setaria viridis; Ex. 26 solo 62.5 gai/ha, 20 DAT, SETVI (pyroxsulam table) | Setaria viridis; Ex. 26 solo 125 gai/ha, 20 DAT, SETVI (pyroxsulam table)
20%: Ambrosia elatior [1]; Ex. 26 solo 250 gai/ha, 20 DAT, AMBEL (pyroxsulam table) | Ambrosia elatior [1]; Ex. 26 solo, 250 gai/ha, 21 DAT, AMBEL | Papaver rhoeas; 20 DAT, PAPRH, Ex. 26 solo 250 gai/ha | Setaria viridis; Ex. 26 solo 125 gai/ha, 20 DAT, SETVI (pyridate table)
85%: Avena fatua [4]; Ex. 26 solo, 250 gai/ha, 20 DAT, AVEFA
65% and 70%: Avena fatua [3]; [12]
65%: Avena fatua [3]; 20 DAT, Ex. 26 solo 125 gai/ha | Avena fatua [3]; AVEFA, 20 DAT, solo Ex. 26 125 gai/ha (Table X68) | Avena fatua [3]; [13] | Avena fatua [4]; 20 DAT, AVEFA, Ex. 26 solo 62.5 gai/ha | Avena fatua [4]; Ex. 26 solo 62.5 gai/ha, 20 DAT, AVEFA | Avena fatua [4]; Ex. 26 solo, 125 gai/ha, 20 DAT, AVEFA
70%: Avena fatua [3]; 21 DAT, AVEFA, Ex. 26 solo 250 gai/ha | Avena fatua [4]; 20 DAT, Ex. 26 solo 250 gai/ha | Avena fatua [4]; AVEFA, 21 DAT, solo Ex. 26 62.5 gai/ha | Avena fatua [4]; AVEFA, 21 DAT, solo Ex. 26 125 gai/ha | Avena fatua [4]; [13] | Avena fatua [4]; Ex. 26 solo 125 gai/ha, 20 DAT, AVEFA | Avena fatua [4]; Ex. 26 solo, 125 gai/ha, 21 DAT, AVEFA
15%: Papaver rhoeas; Ex. 26 solo, 250 gai/ha, 21 DAT, PAPRH
55%: Avena fatua [3]; AVEFA, 20 DAT, solo Ex. 26 62.5 gai/ha | Avena fatua [3]; Ex. 26 solo, 62.5 gai/ha, 20 DAT, AVEFA
5%: Ambrosia elatior [1]; Ex. 26 solo 62.5 gai/ha, 21 DAT, AMBEL

From patent US10966426B2, “Herbicidal compositions comprising phenylpyrimidines” (BASF SE, priority 2016, dated 2021)
